Measured values reported in patent US6410544B1, “Cholinergic agents in the treatment of presbyopia” (Allergan Sales, Inc., priority 1998, dated 2002).
Entries after “also recorded” stand apart in the source; their conditions may differ.

Assays:
[1] = test system: eye of a presbyopic myope; test: Hartinger refractometry at distance and near after one topical drop, myopic presbyope; format: in vivo, human; settings: for Mean Refraction, Near OS: +1.50 sphere in the right eye for near fixation; for Mean Refraction, Near OD: +1.75 sphere in the left eye for near fixation
Procedure: (§1) This clinical study was designed to evaluate the effect of a low dose muscarinic agent such as Pilocarpine from 0.001% to less than 2% by weight values on the refractive status of the eye.
(§2) One drop of Pilocarpine 0.3% was administered topically to the eye of a presbyopic myope and hyperope, before and after Hartinger Refractometry at distance and near was performed by the same observer.
(§3) Refraction at distance and near was performed with the Hartinger Refractomer by the same observer prior to installation of Pilcarpine 0.3%. Three measurements were taken at distance and at near for each eye tested at each timepoint.
(§4) In the myopic presbyope, both eyes received Piolcarpine 0.3%. In the hyperopic presbyope, only the right eye received Pilocarpine 0.3%.
(§5) At approximately 30-50 and 60-90 minutes post installation of Pilocarpine, refraction measurements were repeated.

[2] = test system: eye of a human adult with presbyopia; test: Eye drop formulation given to a human adult with presbyopia; format: in vivo; settings: 0.1% weight/volume in base solution pH 6.4, human adult with presbyopia
Procedure: In a specific example of this invention, a base solution can be formulated as follows: Sodium Chloride 0.3%; Edetate Disodium 0.1%; Boric Acid 1.0%; Benzaliconium Chloride 0.01% Sodium Hydroxide (adjust to pH 6.4) and Water. Pilocarpine, at a concentration of 0.1% weight/volume, is added to the base solution. The above formulation is administered to the eye of a human adult with presbyopia, shown by their discomfort when reading, or their inability to read fine print.

[3] = test system: eye of a presbyopic hyperope; test: Hartinger refractometry at distance and near after one topical drop, hyperopic presbyope; format: in vivo, human
Procedure: as §1, §2, §3, §4, §5

[4] = test system: eye of a presbyopic myope; test: Hartinger refractometry at distance and near after one topical drop, myopic presbyope; format: in vivo, human; settings: single measurements, time point printed '30 min, 3:45 pm'
[5] = test system: pupil size; test: Observation of pupil size in the refractometry study; format: in vivo, human; settings: after one topical drop, myopic and hyperopic presbyope

CC[C@@H]1C(=O)OC[C@@H]1Cc1cncn1C [Pilocarpine 0.3%, Pilocarpine]
change in distance and near myopic correction ([1]; 30 and 60 minutes post dosing): small but definite decrease in the distance and near myopic correction which was greater at 60 than 30 minutes post dosing | Mean Refraction, Distance OD ([1]; 30 min post instillation): −1.06 diopters | Mean Refraction, Near OS ([1]; 30 min post instillation): −1.53 diopters | Mean Refraction, Near OD ([1]; 30 min post instillation): −1.8 diopters | Mean Refraction, Distance OD ([1]; 60 min post instillation): −1.05 diopters | Mean Refraction, Distance OS ([1]; 60 min post instillation): −1.25 diopters | Mean Refraction, Near OS ([1]; 60 min post instillation): −0.95 diopters | Mean Refraction, Near OD ([1]; 60 min post instillation): −1.5 diopters | vision after administration of the eye drops [2]: Vision is improved | Mean Refraction, Distance OD ([3]; 50 min post instillation): +1.15 diopters | Mean Refraction, Near OD ([3]; 50 min post instillation, +2.5 sphere in the left eye for near fixation): +0.17 diopters | Mean Refraction, Distance OD ([3]; 90 min post instillation): +0.42 diopters | Mean Refraction, Near OD ([3]; 90 min post instillation, +2.50 sphere in the left eye for near fixation): +0.38 diopters | change in distance and near hyperopic correction ([3]; 90 minutes post dosing): small but definite decrease in the distance and near hyperopic correction | Refraction, Distance OS [4]: −1.25 diopters | Refraction, Near OD [4]: −1.5 diopters | change in pupil size [5]: no notable change in pupil size; also recorded: no observable effect on pupil size
